Reference: ChEMBL document CHEMBL5512693, “Improved Rigidin-Inspired Antiproliferative Agents with Modifications on the 7-Deazahypoxanthine C7/C8 Ring Systems” (J Med Chem, 2024)
In brackets after ≈: the same amount, converted by molar mass. Activity calls are given as the source filed them. No cut-off for these calls is given here.

Columns and labels:
Tubulin (Homo sapiens) [1] = target: T1, Tubulin (Homo sapiens) (UniProt P68371+Q9H4B7+P0DPH7+P68366+Q13509+Q71U36+P04350+Q3ZCM7+P07437+P68363+Q9BQE3+Q6PEY2+Q13885+Q9BVA1+Q9BUF5); assay: Induction of microtubule organization changes in human Hela cells assessed as decrease in spindle length at GI50 concentration incubated for 4 hrs by inverted microscopy; type: cell-based
HeLa [2] = assay: Antiproliferative activity against human HeLa cells assessed as reduction in cell viability incubated for 48 hrs by MTT assay; type: functional
Tubulin (Homo sapiens) [3] = target: T1, Tubulin (Homo sapiens); assay: Inhibition of microtubule (unknown origin) polymerization at 25 uM by fluorescence- based assay relative to control; type: protein-complex assay
[4] = Therapeutic index, ratio of GI50 for human PNT1A cells to GI50 for human HeLa cells; type: toxicity; settings: PNT1A cells and HeLa cells, read-out: TI
HeLa [5] = assay: Induction of apoptosis in human HeLa cells assessed as total number of cells died at 20 uM measured upto 30 hrs by Annexin V labelling method relative to control; type: functional
[6] = Solubility of the compound by laser nephelometry; type: physicochemical
HeLa [7] = assay: Antimitotic effect in human HeLa cells expressing EGFP-tubulin assessed as chromosome congression defect by measuring progressing through mitosis to prolonged pro-metaphase arrest at 7.5 nM incubated for 4 hrs by immunolabelling based live-cell imaging/inverted microscopy; type: functional
HeLa [8] = assay: Antimitotic effect in human HeLa cells expressing EGFP-tubulin assessed as chromosome congression defect by measuring mitotic exit/cell death at 7.5 nM incubated for 4 hrs by immunolabelling based live-cell imaging/inverted microscopy; type: functional
HeLa [9] = assay: Antimitotic effect in human HeLa cells expressing EGFP-tubulin assessed as chromosome congression defect by measuring correcting the syntelic attachment at 7.5 nM incubated for 4 hrs by live-cell imaging/inverted microscopy; type: functional, cell-based

Row | inhibition (Tubulin (Homo sapiens) [3]) [%] | SMILES | Activity (Tubulin (Homo sapiens) [1]) | selectivity ratio [4] | solubility kinetic [6] [µM] | also measured
1 | 100 | C#CCCCc1nc(=O)c2c(-c3ccccc3)c(C(=O)c3ccccc3)[nH]c2[nH]1 | – | – | – | –
2 | 100 | C#CCCCc1nc(=O)c2c(-c3ccccc3)c(C(=O)c3ccc(OCCOCC)cc3)[nH]c2[nH]1 | Active | 2 | 14 (≈ 6.57 µg/mL) | Activity (HeLa [7]): Active; Activity (HeLa [8]): Active; Activity (HeLa [9]): Active
3 | – | C#CCCCc1nc(=O)c2c(-c3ccccc3)c(C(=O)c3ccc(N4CCOCC4)cc3)[nH]c2[nH]1 | – | 2 | – | –
4 | – | C#CCCCc1nc(=O)c2c(-c3cc(F)cc(F)c3)c(C(=O)c3ccc(OCCOCC)cc3)[nH]c2[nH]1 | Active | – | 14 (≈ 7.08 µg/mL) | Activity (HeLa [5]): 85%
5 | – | C#CCCCc1nc(=O)c2c(-c3cccc(Br)n3)c(C(=O)c3ccc(OCCOCC)cc3)[nH]c2[nH]1 | – | – | – | GI50 (HeLa [2]): 22.4 nM
6 | 100 | C#CCCCc1nc(=O)c2c(-c3ccccc3)c(C(=O)c3ccc(OCCN4CCOCC4)cc3)[nH]c2[nH]1 | Active | – | – | solubility [6]: Soluble
7 | – | C#CCCCc1nc(=O)c2c(-c3ccccc3)c(C(=O)c3ccc(OCCN4CCCC4)cc3)[nH]c2[nH]1 | – | – | – | solubility [6]: Soluble

Row | SMILES | inhibition (Tubulin (Homo sapiens) [3]) [%] | Activity (Tubulin (Homo sapiens) [1]) | selectivity ratio [4] | solubility kinetic [6] [µM] | also measured
8 | C#CCCCc1nc(=O)c2c(-c3cccc(F)c3)c(C(=O)c3ccc(OCCOCC)cc3)[nH]c2[nH]1 | 100 | Active | 2 | 14 (≈ 6.83 µg/mL) | GI50 (HeLa [2]): 16 nM; Activity (HeLa [5]): 87%
